In patent publication US10828305B2 (SHANGHAI PHARMACEUTICALS HOLDING CO., LTD., priority 2016, dated 2020):

Columns and labels:
[1] = molecular target: ErbB2 kinase (Homo sapiens, UniProt P04626); assay: Enzymatic experiment on ErbB2 (HTRF kinEASE-TK); assay type: biochemical; conditions: ATP 4 μM; read-out: Kinase IC50 (nM) in vitro ErbB2
Procedure: (§1) Enzymatic Experiment on EGFR/ErbB2
(§2) Firstly, preparing 1× reaction buffer required for the kinase, 5× Enzymatic buffer (HEPES 20 mM pH7.0, NaN3 0.1%, BSA 0.05%, sodium orthovanadate 0.5 mM) in the HTRF kinEASE-TK kit was diluted to 1 time with deionized water, 50 nM Supplement Enzymatic buffer (SEB reagent), 1 mM MnCl2, 5 mM MgCl2 and 1 mM DTT were added. Secondly, preparing 5× compound, 10 mM test compound stock solution was diluted in multiple steps with DMSO in a 96-well compound plate to prepare 100× compound as initial concentration, which was then used as the first concentration to perform a 3-fold gradient dilution with DMSO to obtain 10 concentrations. Afterwards, 1 μl gradient dilution was added to 19 μl 1× reaction buffer to prepare 5× compound for use. Then 2 μl 5× compound was transferred from the 96 well plate into a 384-well plate. To the compound-free control wells was added with 2 μl the following liquid: 19 μl 1× reaction buffer with addition of 1 μl DMSO. To the blank control wells was added 2 μl 250 mM EDTA. The third step was enzymatic reaction, the kinase, substrate (TK Substrate-biotin) and ATP were formulated into 2.5× enzyme/substrate mixture and 2.5×ATP solution using 1× reaction buffer respectively. The final concentration of ErbB2 kinase was 0.06 ng/μl, the final concentration of ATP was 4 μM; the final concentration of EGFR kinase was 0.06 units/μl, the final concentration of ATP was 1.65 μM; 4 μl 2.5× enzyme/substrate mixture was added to a 384-well plate, which was incubated at room temperature for 5 minutes; 4 μl 2.5×ATP solution was added to each well and the mixture was allowed to react for 30 minutes at room temperature. The fourth step was termination of the reaction, HTRF Detection buffer was used to prepare a mixture of 2×TK Antibody-Eu(K) and Sa-XL665, the amount of TK Antibody-Eu(K) was 5 μl per well. After the enzymatic reaction was performed for 30 minutes, 10 μl of the above liquid was added to the 384-well plate and the mixture was allowed to react at room temperature for 1 hour. The data was measured on EnVision™, the laser of 337 nm wavelength was selected as the excitation light, RFU665 nM and RFU620 nM were measured, and […]/RFU620 nM×10000 was used as the final data for analysis.

[2] = molecular target: EGFR kinase (Homo sapiens, UniProt P00533); assay: Enzymatic experiment on EGFR (HTRF kinEASE-TK); assay type: biochemical; conditions: ATP 1.65 μM; read-out: Kinase IC50 (nM) in vitro EGFR
Procedure: as §1, §2

[3] = tested on: BT-474; assay: Proliferation inhibition assay in vitro, BT-474 (CellTiter-Glo); assay type: cell-based; conditions: Homo sapiens, 72 hours, read-out: IC50(nM) cell BT-474
Procedure: (§3) Proliferation Inhibition Assay In Vitro of Cell Lines
(§4) 1. Cell culture and inoculation: on the first day of the experiment, normal cultured cells were taken in the exponential growth phase, the cells were dispersed by digesting, then the cell density was adjusted to 8.8×10^4 cells/mL for BT-474 and 6.6×10^4 cells/mL for N87, 90 μl of which were inoculated to each well in a 96-well cell culture plate; after inoculation, the microplate was placed at condition of 37° C., 5% CO2 overnight. 2. Dosing to cells: on the second day of the experiment, the microplate was taken out from incubator, […], of 10× compound was separately added to each well of the microplate, 2 duplicated wells were set for each concentration, 9 dosing concentrations were set for each compound. According to different cell lines, the initial concentration of each compound was different. Upon completion of addition, the microplate was placed at condition of 37° C., 5% CO2 for 72 hours. 3. Data acquisition: the microplate was taken out from the incubator and allowed to stand at room temperature to equilibrate for 30 minutes. 100 μl CellTiter-Glo® Luminescent Cell Viability Assay reaction solution which had been equilibrated at room temperature was added to each well and the microplate was shaken at 1300 rpm for 2 minutes at room temperature. The microplate was centrifuged at 2000 rpm for 1 minute in a HERAEUS Multifuge X1R and then allowed to equilibrate at room temperature for 10 minutes. The […] signal was measured on EnVision™.

[4] = tested on: N87; assay: Proliferation inhibition assay in vitro, N87 (CellTiter-Glo); assay type: cell-based; conditions: Homo sapiens; 72 hours; read-out: IC50(nM) cell N87
Procedure: as §3, §4

Chain of ErbB2 kinase (P04626 23-1255): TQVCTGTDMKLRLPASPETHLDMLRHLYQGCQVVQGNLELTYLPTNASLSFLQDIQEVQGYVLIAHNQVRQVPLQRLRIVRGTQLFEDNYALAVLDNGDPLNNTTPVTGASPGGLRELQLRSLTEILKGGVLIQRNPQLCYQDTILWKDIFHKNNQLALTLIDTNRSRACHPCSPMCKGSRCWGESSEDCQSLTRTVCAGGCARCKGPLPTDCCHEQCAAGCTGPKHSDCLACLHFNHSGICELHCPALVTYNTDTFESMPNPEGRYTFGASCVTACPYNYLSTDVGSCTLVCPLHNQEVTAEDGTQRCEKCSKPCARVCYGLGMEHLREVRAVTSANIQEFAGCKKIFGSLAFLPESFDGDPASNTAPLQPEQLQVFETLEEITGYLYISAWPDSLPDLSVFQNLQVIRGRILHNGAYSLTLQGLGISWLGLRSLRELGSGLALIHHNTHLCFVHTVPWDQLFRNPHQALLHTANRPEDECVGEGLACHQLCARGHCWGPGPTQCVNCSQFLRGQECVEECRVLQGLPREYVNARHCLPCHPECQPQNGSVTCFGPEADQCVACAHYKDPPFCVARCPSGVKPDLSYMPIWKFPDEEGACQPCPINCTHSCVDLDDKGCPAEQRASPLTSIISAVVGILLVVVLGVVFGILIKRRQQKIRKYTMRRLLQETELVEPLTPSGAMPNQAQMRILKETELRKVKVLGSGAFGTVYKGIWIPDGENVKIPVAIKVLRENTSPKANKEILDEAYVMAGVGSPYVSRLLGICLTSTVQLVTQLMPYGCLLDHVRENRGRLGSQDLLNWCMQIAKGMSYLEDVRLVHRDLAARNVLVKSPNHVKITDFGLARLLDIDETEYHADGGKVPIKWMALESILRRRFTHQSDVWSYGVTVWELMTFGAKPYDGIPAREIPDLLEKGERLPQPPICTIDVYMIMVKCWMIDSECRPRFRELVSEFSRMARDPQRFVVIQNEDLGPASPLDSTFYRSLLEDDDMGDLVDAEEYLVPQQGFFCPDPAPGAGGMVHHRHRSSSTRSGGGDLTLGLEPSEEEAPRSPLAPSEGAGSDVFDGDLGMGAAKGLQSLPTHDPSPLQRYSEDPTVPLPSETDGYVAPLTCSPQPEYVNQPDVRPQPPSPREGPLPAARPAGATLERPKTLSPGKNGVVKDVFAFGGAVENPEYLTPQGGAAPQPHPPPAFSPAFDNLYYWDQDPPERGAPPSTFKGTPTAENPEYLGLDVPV
Chain of EGFR kinase (P00533 25-1210): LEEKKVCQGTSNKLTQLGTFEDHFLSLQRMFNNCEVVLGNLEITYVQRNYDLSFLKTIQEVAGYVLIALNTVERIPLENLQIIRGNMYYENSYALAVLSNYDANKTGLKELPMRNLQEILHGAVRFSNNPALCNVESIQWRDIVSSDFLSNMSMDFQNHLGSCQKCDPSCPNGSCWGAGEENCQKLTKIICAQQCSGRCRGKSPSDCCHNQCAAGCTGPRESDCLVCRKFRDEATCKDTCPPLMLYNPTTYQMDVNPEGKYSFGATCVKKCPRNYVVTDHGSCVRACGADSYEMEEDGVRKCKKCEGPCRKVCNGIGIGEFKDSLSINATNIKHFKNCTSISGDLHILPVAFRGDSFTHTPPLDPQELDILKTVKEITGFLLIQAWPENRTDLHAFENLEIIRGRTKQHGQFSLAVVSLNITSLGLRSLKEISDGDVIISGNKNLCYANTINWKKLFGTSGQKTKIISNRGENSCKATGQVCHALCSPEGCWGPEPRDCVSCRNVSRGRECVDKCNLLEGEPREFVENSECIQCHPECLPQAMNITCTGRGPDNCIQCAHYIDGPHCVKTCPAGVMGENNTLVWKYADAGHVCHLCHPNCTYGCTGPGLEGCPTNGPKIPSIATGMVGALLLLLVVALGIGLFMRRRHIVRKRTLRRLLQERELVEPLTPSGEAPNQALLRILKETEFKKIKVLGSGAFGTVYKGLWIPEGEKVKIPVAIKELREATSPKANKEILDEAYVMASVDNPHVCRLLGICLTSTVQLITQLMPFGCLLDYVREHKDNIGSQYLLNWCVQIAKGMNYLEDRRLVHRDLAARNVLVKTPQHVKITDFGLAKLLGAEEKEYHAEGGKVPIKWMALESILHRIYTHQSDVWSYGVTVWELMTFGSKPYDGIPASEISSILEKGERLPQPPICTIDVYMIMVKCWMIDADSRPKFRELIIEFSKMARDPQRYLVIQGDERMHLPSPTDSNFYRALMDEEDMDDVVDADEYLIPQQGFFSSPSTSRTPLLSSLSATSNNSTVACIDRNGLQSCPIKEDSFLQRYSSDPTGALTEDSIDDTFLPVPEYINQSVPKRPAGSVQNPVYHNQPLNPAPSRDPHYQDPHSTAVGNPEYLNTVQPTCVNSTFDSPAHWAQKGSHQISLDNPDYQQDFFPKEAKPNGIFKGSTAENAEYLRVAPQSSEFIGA

SMILES	IC50 [1]	IC50 [2]	IC50 [3]	IC50 [4]
Cc1cc(Nc2ncnc3ccc(/C=C/C(=O)NOCCO)cc23)ccc1Oc1cc2nncn2cn1	22.1 nM	82.7 nM		
Cc1cc(Nc2ncnc3ccc(NC4=NC(C)(C)CO4)cc23)ccc1Oc1cc2ncnn2cn1 [Embodiment 2, N^4-(4-([1,2,4]triazolo[1,5-c]pyrimidin-7-yloxy)-3-methylphenyl)-N^6-(4,4-dimethyl-4,5-dihydrooxazol-2-yl)quinazoline-4,6-diamine]	16.7 nM	230 nM		
Cc1cc(Nc2ncnc3ccc(NC4=NC(C)(C)CO4)cc23)ccc1Oc1cc2nccn2cn1 [Embodiment 3, N^6-(4,4-dimethyl-4,5-dihydrooxazol-2-yl)-N^4-(4-(imidazo[1,2-c]pyrimidin-7-yloxy)-3-methylphenyl)quinazoline-4,6-diamine]	1.1 nM	18.7 nM	38.5 nM	48.7 nM
Cc1cc(Nc2ncnc3ccc(Br)cc23)ccc1Oc1cc2nncn2cn1 [Embodiment 5, N-(4-([1,2,4]triazolo[4,3-c]pyrimidin-7-yloxy)-3-methylphenyl)-6-bromoquinazolin-4-amine]	12.9 nM	703 nM	460 nM	313 nM
Cc1cc(Nc2ncnc3ccc(NC(=O)N4CCOCC4)cc23)ccc1Oc1cc2nncn2cn1 [Embodiment 6]	24.8 nM	1890 nM		
Cc1cc(Nc2ncnc3ccc(NC(=S)NC(C)(C)CNC(=O)OC(C)(C)C)cc23)ccc1Oc1cc2nncn2cn1 [Embodiment 11, tert-butyl (2-(3-(4-((4-([1,2,4]triazolo[4,3-c]pyrimidin-7-yloxy)-3-methylphenyl)amino)quinazolin-6-yl)thioureido)-2-methylpropyl)carbamate]	58.1 nM	> 3330 nM		
Cc1cc(Nc2ncnc3ccc(NC(=S)NCC(C)(C)N)cc23)ccc1Oc1cc2nncn2cn1 [Embodiment 18, 1-(4-((4-([1,2,4]triazolo[4,3-c]pyrimidin-7-yloxy)-3-methylphenyl)amino)quinazolin-6-yl)-3-(2-amino-2-methylpropyl)thiourea]	13.2 nM	79.5 nM		
Cc1cc(Nc2ncnc3ccc(NC(=O)OC[C@@H]4COCCN4)cc23)ccc1Oc1cc2nncn2cn1 [Embodiment 20, morpholin-3-ylmethyl (S)-(4-((4-([1,2,4]triazolo[4,3-c]pyrimidin-7-yloxy)-3-methylphenyl)amino)quinazolin-6-yl)carbamate]	4.3 nM	40.6 nM		
Cc1cc(Nc2ncnc3ccc(NC4=NCC5(CCNCC5)O4)cc23)ccc1Oc1cc2nncn2cn1 [Embodiment 28, N^4-(4-([1,2,4]triazolo[4,3-c]pyrimidin-7-yloxy)-3-methylphenyl)-N^6-(1-oxa-3,8-diazaspiro[4.5]dec-2-en-2-yl)quinazoline-4,6-diamine]	4.79 nM	17.7 nM		
C=CC(=O)N1CC2(COC(Nc3ccc4ncnc(Nc5ccc(Oc6cc7nncn7cn6)c(C)c5)c4c3)=N2)C1 [Embodiment 29, 1-(6-((4-((4-([1,2,4]triazolo[4,3-c]pyrimidin-7-yloxy)-3-methylphenyl)amino)quinazolin-6-yl)amino)-7-oxa-2,5-diazaspiro[3.4]oct-5-en-2-yl)prop-2-en-1-one]	3.6 nM	41.8 nM		
Cc1cc(Nc2ncnc3ccc(NC(=O)CC#N)cc23)ccc1Oc1cc2nncn2cn1 [Embodiment 37, N-(4-((4-([1,2,4]triazolo[4,3-c]pyrimidin-7-yloxy)-3-methylphenyl)amino)quinazoline-6-yl)-2-cyanoacetamide]	4.8 nM	45.2 nM		
Cc1cc(Nc2ncnc3ccc(NC(=O)c4cnoc4C)cc23)ccc1Oc1cc2nncn2cn1 [Embodiment 39, N-(4-((4-([1,2,4]triazolo[4,3-c]pyrimidin-7-yloxy)-3-methylphenyl)amino)quinazoline-6-yl)-5-methylisoxazole-4-carboxamide]	1.8 nM	20 nM		
COc1cc2ncnc(Nc3ccc(Oc4cc5nncn5cn4)c(C)c3)c2cc1OC1CCNCC1 [Embodiment 40, N-(4-([1,2,4]triazolo[4,3-c]pyrimidin-7-yloxy)-3-methylphenyl)-7-methoxy-6-(piperidin-4-yloxy)quinazolin-4-amine]	6.9 nM	12.7 nM		
Cc1cc(Nc2ncnc3ccc(NC4=NCC(F)(F)CO4)cc23)ccc1Oc1cc2nncn2cn1 [Embodiment 43, N^4-(4-([1,2,4]triazolo[4,3-c]pyrimidin-7-yloxy)-3-methylphenyl)-N^6-(5,5-difluoro-5,6-dihydro-4H-1,3-oxazin-2-yl)quinazoline-4,6-diamine]	9.26 nM	69.7 nM		
Cc1cc(Nc2ncnc3ccc(NC(=O)Nc4cc(C)n(C(=O)OC(C)(C)C)n4)cc23)ccc1Oc1cc2nncn2cn1 [Embodiment 69, tert-butyl 3-(3-(4-((4-([1,2,4]triazolo[4,3-c]pyrimidin-7-yloxy)-3-methylphenyl)amino)quinazolin-6-yl)ureido)-5-methyl-1H-pyrazol-1-carbamate]	7 nM	92.7 nM		
Cc1cc(Nc2ncnc3ccc(NC(=O)/C(C#N)=C/C4CC4)cc23)ccc1Oc1cc2nncn2cn1 [Embodiment 85, (E)-N-(4-((4-([1,2,4]triazolo[4,3-c]pyrimidin-7-yloxy)-3-methylphenyl)amino)quinazolin-6-yl)-2-cyano-3-cyclopropylacrylamide]	2.2 nM	14.9 nM		
CC1(C)COC(Nc2ccc3ncnc(Nc4ccc(Oc5cc6nncn6cn5)c(CO)c4)c3c2)=N1 [Embodiment 89, N^4-(3-hydroxymethyl-4-([1,2,4]triazolo[4,3-c]pyrimidin-7-yloxy)phenyl)-N^6-(4,4-dimethyl-4,5-dihydrooxazol-2-yl)quinazolin-4,6-diamine]	8.5 nM	167 nM		
Cc1cc(Nc2ncnc3ccc(NC4=NC(C)(C)CO4)cc23)ccc1Oc1ncn2cnnc2c1O [Embodiment 102, 7-(4-((6-((4,4-dimethyl-4,5-dihydrooxazol-2-yl)amino)quinazolin-4-yl)amino)-2-methylphenoxy)-[1,2,4]triazolo[4,3-c]pyrimidin-8-ol]	4.5 nM	11.4 nM		
Cc1cc(Nc2ncnc3ccc(NC(=S)NCC(C)(C)O)cc23)ccc1Oc1cc2nncn2cn1 [Embodiment 113, 1-(4-((4-([1,2,4]triazolo[4,3-c]pyrimidin-7-yloxy)-3-methylphenyl)amino)quinazolin-6-yl)-3-(2-hydroxy-2-methylpropyl)thiourea]	9.4 nM	170 nM		
C=CC(=O)N1CCC2(CC1)CN=C(Nc1ccc3ncnc(Nc4ccc(Oc5cc6nncn6cn5)c(C)c4)c3c1)O2 [Embodiment 114, 1-(2-((4-((4-([1,2,4]triazolo[4,3-c]pyrimidin-7-yloxy)-3-methylphenyl)amino)quinazolin-6-yl)amino)-1-oxa-3,8-diazaspiro[4,5]dec-2-en-8-yl)-2-acrylamide]	24.5 nM	623 nM		
Cc1cc(Nc2ncnc3ccc(NC4=NC(C)(C)CO4)cc23)ccc1Oc1ccn2ncnc2c1 [drawing 219, reference compound]		57.6 nM	14.2 nM	13.2 nM
Cc1cc(Nc2ncnc3ccc(NC4=NC(C)(C)CO4)cc23)ccc1Oc1ccn2nccc2n1 [reference compound]	49.4 nM	82.7 nM		
Cc1cc(Nc2ncnc3ccc(NC4=NC(C)(C)CO4)cc23)ccc1Oc1ccc2nncn2n1 [reference compound]	935 nM	557 nM		
